Experimental data reported in PMC9502272, “A Metabolomics Approach for Predicting OATP1B-Type Transporter-Mediated Drug–Drug Interaction Liabilities” (Pharmaceutics, 2022).
Values joined by “and” are separate entries in the source; they are usually repeats but may differ in a detail not shown here. Equal entries are not always repeated.

Key:
Oatp1b2 [1] = target: T1, Oatp1b2 (Mus musculus, UniProt Q9JJL3); experiment: Uptake in HEK293 cells overexpressing Oatp1b2; assay type: cell-based; parameters: from tissue; hepatic transporter in vivo; settings: HEK293 cells overexpressing Oatp1b2, 5 min uptake, vs empty vector
T1 sequence (Q9JJL3 1-689): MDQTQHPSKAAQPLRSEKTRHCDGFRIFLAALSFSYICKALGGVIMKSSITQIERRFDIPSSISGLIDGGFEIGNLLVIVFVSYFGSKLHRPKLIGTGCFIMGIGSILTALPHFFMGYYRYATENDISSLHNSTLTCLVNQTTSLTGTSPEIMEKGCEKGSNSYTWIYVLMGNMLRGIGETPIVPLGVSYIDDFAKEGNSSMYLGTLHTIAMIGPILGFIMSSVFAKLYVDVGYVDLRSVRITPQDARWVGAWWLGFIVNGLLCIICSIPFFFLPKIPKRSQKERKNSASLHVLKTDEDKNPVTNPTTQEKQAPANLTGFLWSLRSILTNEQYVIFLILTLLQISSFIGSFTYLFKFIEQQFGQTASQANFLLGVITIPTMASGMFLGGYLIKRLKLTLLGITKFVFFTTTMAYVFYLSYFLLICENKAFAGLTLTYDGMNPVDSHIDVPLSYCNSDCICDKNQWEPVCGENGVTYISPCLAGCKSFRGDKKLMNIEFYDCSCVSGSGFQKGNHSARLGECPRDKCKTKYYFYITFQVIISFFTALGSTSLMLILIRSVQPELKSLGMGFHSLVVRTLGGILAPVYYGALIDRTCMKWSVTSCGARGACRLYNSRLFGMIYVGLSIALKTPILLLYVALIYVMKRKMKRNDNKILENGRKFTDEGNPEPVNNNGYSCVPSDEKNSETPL
Description: (§1) The generation of human embryonic kidney (HEK293) cells (ATCC) engineered to overexpress OATP1B1, Oatp1b2, or empty vector, the cell culture conditions, and general details of uptake studies have been reported in detail elsewhere. Briefly, cells were grown to 90% confluence on poly-lysine coated multi-well plates. […] The pre-treatment medium was rinsed off with warm 1× PBS followed by the addition of the test compounds for an incubation period of 5 min. After incubation, transport was halted by aspirating the medium and rinsing the cells three times with ice-cold 1× PBS. After lysing cells with 0.1 N HCl, and subsequent adding methanol, 20 μL aliquots were mixed with 60 μL of acetonitrile containing relevant internal standards. After vortex mixing, the mixtures were centrifuged, and the supernatants were used for quantitative analysis by LC-MS/MS. Drug uptake results were normalized to total protein content and then to data obtained in cells carrying an empty vector plasmid, which was set to 100%.

human OATP1B1 = experiment: Baseline plasma CDCA-24G in Oatp1a/1b(−/−) mice with transgenic hepatic expression of OATP1B1 (OATP1B1(tg)); assay type: in vivo, mouse; settings: range stated jointly for OATP1B1(tg) and OATP1B3(tg)
Description: (§2) Plasma concentrations of levels of CDCA-24G and glycochenodeoxycholate-3-sulfate (GCDCA-S) were determined using LC-MS/MS using a Vanquish UHPLC coupled with a Quantiva triple quadrupole mass spectrometer (Thermo Fisher Scientific, Waltham, MA, USA). An Accucore aQ column (50 × 2.1 mm, dp = 2.6 μm; Thermo Fisher Scientific) was protected by a C18 AQUASIL guard cartridge (2.1 mm × 10 mm, dp = 3 μm; Thermo Fisher Scientific). The injection volume of sample was 5.0 μL. The temperature of the autosampler rack was 4 °C, and the temperature of the column was maintained at 20 °C. The mobile phase was composed of solvent A (2 mmol ammonium acetate in water) and solvent B (100% methanol), and the total run time was 4.6 min. The gradient conditions were as follows: 0–0.5 min, 45% B; 0.5–2.0 min, 45 to 90%, 2.0–4.0 min, 90% B; 4.0–4.6 min, 45% B, delivered at a flow rate of 0.4 mL/min. […] Precursor molecular ions, and product ions were recorded for the confirmation and detection of GCDCA-S (528.4 > 448.3) and CDCA-24G (567.4 > 391.1), using [^2H5]-GCDCA-S (535.5 > 453.3) and [^2H5]-CDCA-24G (572.5 > 396.1) as respective internal standards. The lower limit of quantitation (LLOQ) for both analytes was determined to be 0.5 ng/mL. […]

Oatp1b2 [2] = target: T1, Oatp1b2; experiment: Baseline plasma CDCA-24G in Oatp1b2(−/−) vs wild-type mice, validated quantitative LC-MS/MS; assay type: in vivo; parameters: from tissue; host or cells: living wild-type mice (DBA/1LacJ or FVB background); hepatic transporter in vivo; settings: untreated, n = 6 per group
Description: as §2

human OATP1B3 = experiment: Baseline plasma CDCA-24G in Oatp1a/1b(−/−) mice with transgenic hepatic expression of OATP1B3 (OATP1B3(tg)); assay type: in vivo; settings: range stated jointly for OATP1B1(tg) and OATP1B3(tg)
Description: as §2

OATP1B1 = target: T2, OATP1B1 (Homo sapiens, UniProt Q9Y6L6); experiment: Uptake in HEK293 cells overexpressing OATP1B1; assay type: cell-based; settings: HEK293 cells overexpressing OATP1B1, 5 min uptake, vs empty vector
T2 construct: expressed in transfected cells; host or cells: HEK293 (ATCC)
T2 sequence (Q9Y6L6 1-691): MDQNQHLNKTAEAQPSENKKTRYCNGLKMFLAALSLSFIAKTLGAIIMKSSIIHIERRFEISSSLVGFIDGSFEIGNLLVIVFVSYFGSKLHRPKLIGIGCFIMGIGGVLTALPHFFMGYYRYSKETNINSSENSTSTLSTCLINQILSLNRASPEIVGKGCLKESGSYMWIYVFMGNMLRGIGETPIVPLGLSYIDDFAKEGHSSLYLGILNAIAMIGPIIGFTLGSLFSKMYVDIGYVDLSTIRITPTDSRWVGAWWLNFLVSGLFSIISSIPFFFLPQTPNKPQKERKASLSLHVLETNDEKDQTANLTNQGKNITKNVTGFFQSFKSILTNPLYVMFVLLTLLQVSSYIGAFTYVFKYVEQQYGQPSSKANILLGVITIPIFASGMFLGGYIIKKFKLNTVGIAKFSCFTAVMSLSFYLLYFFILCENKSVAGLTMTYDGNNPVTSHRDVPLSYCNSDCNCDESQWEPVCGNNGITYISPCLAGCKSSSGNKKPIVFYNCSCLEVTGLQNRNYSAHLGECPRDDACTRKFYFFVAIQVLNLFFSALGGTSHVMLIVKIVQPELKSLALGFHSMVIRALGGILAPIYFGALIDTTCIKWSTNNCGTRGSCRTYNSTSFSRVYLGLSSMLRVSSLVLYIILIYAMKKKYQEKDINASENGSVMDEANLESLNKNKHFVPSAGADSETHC
Description: as §1

In the case of C[C@H](CCC(=O)O[C@@H]1O[C@H](C(=O)O)[C@@H](O)[C@H](O)[C@H]1O)[C@H]1CC[C@H]2[C@@H]3[C@H](O)C[C@@H]4C[C@H](O)CC[C@]4(C)[C@H]3CC[C@]12C [CDCA-24G, chenodeoxycholate-24-glucuronide], the “Transport by murine OATP1B-type transporter” value (Oatp1b2 [1]) is reported as “efficiently transported”, the “Baseline CDCA-24G level, fold lower than in Oatp1a/1b(−/−) mice” value (human OATP1B1) is reported as 5- to 7 fold and the “Plasma concentration of CDCA-24G in Oatp1b2(−/−) mice relative to wild type” value (Oatp1b2 [2]) is reported as 31 fold and > 30 fold. The “Baseline CDCA-24G level, fold lower than in Oatp1a/1b(−/−) mice” value (human OATP1B3) was 5- to 7 fold and the “Transport by human OATP1B-type transporter” value (OATP1B1) was “efficiently transported”.
